{"source": "BindingDB's records for doi:10.7270/Q2TD9VTQ", "about": "(Burnham Center For Chemical Genomics, 2010)", "biological_target": "T1, Caspase-1 (Homo sapiens, UniProt P29466)", "T1 sequence (P29466 whole entry)": "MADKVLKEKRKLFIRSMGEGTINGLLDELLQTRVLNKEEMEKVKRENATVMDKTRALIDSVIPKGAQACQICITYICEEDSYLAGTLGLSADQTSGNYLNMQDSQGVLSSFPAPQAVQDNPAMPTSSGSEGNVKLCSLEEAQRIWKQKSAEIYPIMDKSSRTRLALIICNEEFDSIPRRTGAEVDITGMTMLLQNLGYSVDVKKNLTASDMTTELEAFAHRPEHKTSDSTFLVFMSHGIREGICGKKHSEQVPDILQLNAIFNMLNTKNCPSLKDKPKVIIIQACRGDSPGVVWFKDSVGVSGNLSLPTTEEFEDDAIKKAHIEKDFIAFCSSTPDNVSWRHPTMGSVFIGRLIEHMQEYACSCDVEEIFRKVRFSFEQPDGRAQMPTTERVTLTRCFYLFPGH", "experiment": "CASP1/ASC signal blockers in yeast, IC50, counter-screen for NLRP1 inhibitor project (AID 488863)", "data": [{"smiles": "Oc1cc(Sc2nnnn2-c2ccccc2)c(O)n1-c1cccc(Cl)c1", "values": [{"measurement": "IC50", "value": 5.13, "unit": "µM"}]}, {"smiles": "Cc1ccc(-n2c(O)cc(Sc3ccccc3C(=O)O)c2O)cc1", "values": [{"measurement": "IC50", "value": 20.6, "unit": "µM"}]}, {"smiles": "COc1ccccc1-n1c(O)c2c(c1O)CC(c1ccccc1)CC2", "note": "(stereo not drawn)", "values": [{"measurement": "IC50", "value": "> 100", "unit": "µM"}]}]}
